Measured values reported in the NIST ThermoML archive (doi:10.1016/j.jct.2016.02.009).
Numbers after ± are expanded uncertainties.

Assay: molar heat capacity at constant pressure
Conditions: 101.33 kPa, Small (less than 1 g) adiabatic calorimetry

CCCCCCCCCCCCCCCCn1cc[n+](C)c1.O=S(=O)([N-]S(=O)(=O)C(F)(F)F)C(F)(F)F
Conditions | molar heat capacity at constant pressure [J/K/mol]
240 K, Crystal 2 | 635.6 ± 3.2
240.65 K, Crystal 2 | 637.6 ± 3.2
242.87 K, Crystal 2 | 643.5 ± 3.2
245.08 K, Crystal 2 | 650 ± 3.3
247.28 K, Crystal 2 | 657 ± 3.3
249.47 K, Crystal 2 | 663.5 ± 3.3
250 K, Crystal 2 | 665.4 ± 3.4
251.67 K, Crystal 2 | 671.1 ± 3.4
253.85 K, Crystal 2 | 678.2 ± 3.4
256.03 K, Crystal 2 | 685.8 ± 3.4
258.19 K, Crystal 2 | 693.5 ± 3.5
260 K, Crystal 2 | 700.6 ± 3.5
260.35 K, Crystal 2 | 701.7 ± 3.5
262.5 K, Crystal 2 | 710.5 ± 3.6
264.64 K, Crystal 2 | 719.9 ± 3.6
266.77 K, Crystal 2 | 729.9 ± 3.7
268.89 K, Crystal 2 | 740.5 ± 3.7
270 K, Crystal 2 | 745.5 ± 3.8
271 K, Crystal 2 | 751.1 ± 3.8
273.1 K, Crystal 2 | 761.1 ± 3.8
275.18 K, Crystal 2 | 773.4 ± 3.9
277.25 K, Crystal 2 | 786.9 ± 3.9
279.3 K, Crystal 2 | 801 ± 4
280 K, Crystal 2 | 806.6 ± 4
281.34 K, Crystal 2 | 816.9 ± 4.1
283.37 K, Crystal 2 | 834.5 ± 4.2
285.38 K, Crystal 2 | 853.3 ± 4.3
287.36 K, Crystal 2 | 875.7 ± 4.4
289.32 K, Crystal 2 | 901.5 ± 4.5
290 K, Crystal 2 | 909.7 ± 4.5
291.26 K, Crystal 2 | 930.9 ± 4.7
293.07 K, Crystal 2 | 958.5 ± 4.8
293.16 K, Crystal 2 | 965 ± 4.8
293.61 K, Crystal 2 | 968.5 ± 4.8
294.12 K, Crystal 2 | 978.5 ± 4.9
294.63 K, Crystal 2 | 990.3 ± 5
295.02 K, Crystal 2 | 1004 ± 5
295.14 K, Crystal 2 | 1002 ± 5
295.64 K, Crystal 2 | 1014 ± 5
296.14 K, Crystal 2 | 1027 ± 5
296.64 K, Crystal 2 | 1039 ± 5
296.85 K, Crystal 2 | 1050 ± 5
297.14 K, Crystal 2 | 1053 ± 5
297.63 K, Crystal 2 | 1068 ± 5
298.11 K, Crystal 2 | 1082 ± 5
298.15 K, Crystal 2 | 1084 ± 5
298.6 K, Crystal 2 | 1098 ± 6
298.63 K, Crystal 2 | 1103 ± 6
299.08 K, Crystal 2 | 1113 ± 6
299.55 K, Crystal 2 | 1129 ± 6
300 K, Crystal 2 | 1146 ± 6
300.03 K, Crystal 2 | 1146 ± 6
300.36 K, Crystal 2 | 1161 ± 6
300.49 K, Crystal 2 | 1161 ± 6
300.96 K, Crystal 2 | 1177 ± 6
301.42 K, Crystal 2 | 1193 ± 6
301.88 K, Crystal 2 | 1207 ± 6
302.1 K, Crystal 2 | 1219 ± 6
302.34 K, Crystal 2 | 1222 ± 6
302.79 K, Crystal 2 | 1235 ± 6
303.24 K, Crystal 2 | 1248 ± 6
303.69 K, Crystal 2 | 1253 ± 6
303.84 K, Crystal 2 | 1262 ± 6
304.13 K, Crystal 2 | 1267 ± 6
304.58 K, Crystal 2 | 1271 ± 6
305.02 K, Crystal 2 | 1273 ± 6
305.47 K, Crystal 2 | 1274 ± 6
305.5 K, Crystal 1 | 1274 ± 6
305.5 K, Crystal 2 | 1274 ± 6
305.56 K, Crystal 1 | 1278 ± 6
305.91 K, Crystal 1 | 1275 ± 6
306.36 K, Crystal 1 | 1271 ± 6
306.8 K, Crystal 1 | 1269 ± 6
307.24 K, Crystal 1 | 1268 ± 7
307.28 K, Crystal 1 | 1272 ± 7
307.69 K, Crystal 1 | 1266 ± 6
308.14 K, Crystal 1 | 1261 ± 6
308.58 K, Crystal 1 | 1257 ± 6
309.01 K, Crystal 1 | 1254 ± 6
309.03 K, Crystal 1 | 1251 ± 6
309.48 K, Crystal 1 | 1242 ± 6
309.93 K, Crystal 1 | 1229 ± 6
310 K, Crystal 1 | 1229 ± 6
310.39 K, Crystal 1 | 1187 ± 7
310.81 K, Crystal 1 | 1097 ± 18
310.86 K, Crystal 1 | 1054 ± 18
311.36 K, Crystal 1 | 989.7 ± 5.1
311.88 K, Crystal 1 | 984.4 ± 4.9
312.39 K, Crystal 1 | 986.1 ± 4.9
312.73 K, Crystal 1 | 995.5 ± 5
312.9 K, Crystal 1 | 992 ± 4.9
313.41 K, Crystal 1 | 997.9 ± 5
313.91 K, Crystal 1 | 1011 ± 5
314.42 K, Crystal 1 | 1032 ± 5
314.68 K, Crystal 1 | 1051 ± 5
316.51 K, Crystal 1 | 1261 ± 7
319.25 K, Crystal 1 | 1044 ± 5
319.25 K, Liquid | 972 ± 5
320 K, Liquid | 972 ± 5
320.76 K, Liquid | 972.6 ± 4.8
321.02 K, Liquid | 972.6 ± 4.8
322.55 K, Liquid | 974.4 ± 4.9
322.92 K, Liquid | 974.4 ± 4.9
324.34 K, Liquid | 976.2 ± 4.9
324.82 K, Liquid | 975.6 ± 4.9
326.13 K, Liquid | 977.9 ± 4.9
326.72 K, Liquid | 977.3 ± 4.9
327.92 K, Liquid | 978.5 ± 4.9
328.62 K, Liquid | 979.7 ± 4.9
329.71 K, Liquid | 980.3 ± 4.9
330 K, Liquid | 981 ± 5
330.52 K, Liquid | 981.4 ± 4.9
331.5 K, Liquid | 982 ± 4.9
332.43 K, Liquid | 982.6 ± 4.9
333.29 K, Liquid | 983.8 ± 4.9
334.33 K, Liquid | 984.4 ± 4.9
335.08 K, Liquid | 985.6 ± 4.9
336.23 K, Liquid | 986.1 ± 4.9
336.87 K, Liquid | 986.7 ± 4.9
338.13 K, Liquid | 988.5 ± 4.9
338.66 K, Liquid | 989.1 ± 4.9
340 K, Liquid | 990 ± 5
340.03 K, Liquid | 990.3 ± 4.9
340.45 K, Liquid | 990.3 ± 4.9
341.93 K, Liquid | 991.4 ± 4.9
342.24 K, Liquid | 992 ± 4.9
343.84 K, Liquid | 993.8 ± 5
344.04 K, Liquid | 993.2 ± 4.9
345.74 K, Liquid | 995 ± 5
345.83 K, Liquid | 995 ± 5
347.62 K, Liquid | 997.3 ± 5
347.64 K, Liquid | 996.7 ± 5
349.41 K, Liquid | 998.5 ± 5
349.55 K, Liquid | 999.7 ± 5
350 K, Liquid | 1000 ± 5
351.2 K, Liquid | 1000 ± 5
351.45 K, Liquid | 1001 ± 5
353 K, Liquid | 1003 ± 5
353.35 K, Liquid | 1003 ± 5
354.79 K, Liquid | 1004 ± 5
355.25 K, Liquid | 1006 ± 5
356.58 K, Liquid | 1007 ± 5
357.16 K, Liquid | 1007 ± 5
358.37 K, Liquid | 1009 ± 5
359.06 K, Liquid | 1009 ± 5
360 K, Liquid | 1010 ± 5
360.16 K, Liquid | 1011 ± 5
360.96 K, Liquid | 1011 ± 5
361.95 K, Liquid | 1013 ± 5
362.86 K, Liquid | 1013 ± 5
363.74 K, Liquid | 1014 ± 5
364.75 K, Liquid | 1015 ± 5
365.52 K, Liquid | 1016 ± 5
366.65 K, Liquid | 1018 ± 5
367.31 K, Liquid | 1018 ± 5
368.55 K, Liquid | 1020 ± 5
370 K, Liquid | 1022 ± 5
